Experimental data as given in US20090004694A1, “Sequence of Thermotolerant L-Rhamnose Isomerase Gene and Use of the Same” (National University Corporation Kagawa University, priority 2004, published 2009).
“And” between values parts separate entries of the source, which are not always exact repeats. Equal values may be shown once. Read-outs that look alike come from different tables or passages of the source.

How the values were obtained:
[1] = system: L-rhamnose isomerase derived from Bacillus pallidus strain 14a (IPOD FERM AP-20172); experiment: Substrate specificity (relative activity) of the purified enzyme, cysteine-carbazole method; type: biochemical; conditions: activity against L-rhamnose assumed to be 100%; 50° C., 10 minutes, glycine-NaOH buffer pH 9.0
Description: (§1) The method for measuring the substrate specificity (relative activity (%)) will be described.
(§2) A reaction solution having a composition of 50 μl of the purified enzyme solution, 50 μl of 0.05 M of each substrate sugar, 50 μl of 0.01 M manganese chloride and 0.05 M glycine-NaOH buffer (pH 9.0) was used. The reaction was carried out at a reaction temperature of 50° C. for 10 minutes. The produced ketose corresponding to the respective substrates was measured by the cysteine-carbazole method, and the activity that produces 1 μmol of the ketose per minute was measured for the respective substrates.

[2] = system: L-rhamnose isomerase produced by Pseudomonas stutzeri LL172 (IPOD FERM BP-08593); experiment: as above; type: biochemical; conditions: activity against L-rhamnose assumed to be 100%; 50° C., 10 minutes, glycine-NaOH buffer pH 9.0
Description: as §1, §2

[3] = Solubility of D-psicose and D-allose in water and alcohols; type: physicochemical
Text: The principle of the collection by separation will be briefly described. […] D-psicose has a solubility of about 10% in methanol and ethanol, however, D-allose is insoluble in either alcohol. The temperature has an influence on the solubility. The solubility of D-psicose in both alcohols is increased at a high temperature. Further, when the alcohol concentration is high, D-allose is likely to be crystallized. It is a separation technique utilizing the above physical properties. It is a production method of high-purity D-allose in which by allowing an alcohol (ethanol and/or ethanol) to act on, D-allose which is insoluble in the alcohol (ethanol and/or ethanol) is crystallized and the crystal of D-allose is separated.

[4] = biological target: T1, L-rhamnose isomerase produced by E. coli (Escherichia coli, UniProt P32170); conditions: cited from earlier work
T1 sequence (P32170 1-419): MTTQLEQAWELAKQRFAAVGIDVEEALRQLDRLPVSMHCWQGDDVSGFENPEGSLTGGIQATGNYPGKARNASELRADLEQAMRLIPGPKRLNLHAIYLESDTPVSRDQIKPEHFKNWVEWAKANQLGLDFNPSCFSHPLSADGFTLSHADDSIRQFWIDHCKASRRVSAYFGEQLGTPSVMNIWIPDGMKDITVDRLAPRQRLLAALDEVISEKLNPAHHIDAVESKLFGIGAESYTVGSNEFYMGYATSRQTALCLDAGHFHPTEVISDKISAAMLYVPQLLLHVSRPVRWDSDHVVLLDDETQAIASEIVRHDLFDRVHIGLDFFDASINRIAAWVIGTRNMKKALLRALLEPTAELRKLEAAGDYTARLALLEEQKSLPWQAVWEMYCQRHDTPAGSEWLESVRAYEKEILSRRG

[5] = system: L-rhamnose isomerase produced by Pseudomonas stutzeri LL172; conditions: cited from earlier work; for effect of chelating agent on activity: coexisting during the measurement of the activity
[6] = system: L-rhamnose isomerase derived from Bacillus pallidus strain 14a; experiment: Effect of metal ion on enzyme activity; type: biochemical; conditions: 1 mM cobalt ion
[7] = Optimal pH and working pH of L-rhamnose isomerase; type: biochemical; conditions: 50° C., L-rhamnose as substrate, purified enzyme
Description: The optimal pH of L-rhamnose isomerase derived from Bacillus pallidus was examined. With the use of the purified enzyme, a reaction was carried out at 50° C. using L-rhamnose as a substrate at each pH value.
The optimal pH of L-rhamnose isomerase derived from P. stutzeri was examined. […] With regard to the activity thereof, the optimal pH was present in a range of from pH 7 to around pH 9.

[8] = Optimal and working temperature of L-rhamnose isomerase; type: biochemical; conditions: reaction time of 10 minutes
[9] = Temperature stability of L-rhamnose isomerase; type: physicochemical; conditions: heat treatment condition of 1 hour
[10] = known properties (Non-patent document 1 / Patent document 1); cited from earlier work
[11] = reaction time 10 minutes; cited from earlier work
[12] = cited from earlier work

Molecule: O=C[C@H](O)[C@H](O)[C@@H](O)CO [L-lyxose]
- Enzyme derived from B. Pallidus (relative activity %) [1]: 23.9%
- Enzyme derived from P stutzeri (relative activity %) [2]: 43.9% and 43.7%

Molecule: O=C[C@H](O)[C@H](O)[C@H](O)[C@H](O)CO [D-allose]
- Enzyme derived from B. Pallidus (relative activity %) [1]: 5.5% and 5.6%
- Enzyme derived from P stutzeri (relative activity %) [2]: 7.2%
- solubility in methanol and ethanol [3]: insoluble
- solubility in water [3]: readily soluble
- activity between D-psicose and D-allose [4]: hardly exhibits an activity

Molecule: O=C(O)CN(CCN(CC(=O)O)CC(=O)O)CC(=O)O [EDTA]
- effect of chelating agent on activity [5]: hardly inhibited

Molecule: O=C[C@H](O)[C@H](O)[C@@H](O)[C@@H](O)CO [L-mannose]
- Enzyme derived from B. Pallidus (relative activity %) [1]: 11%
- Enzyme derived from P stutzeri (relative activity %) [2]: 33.4%

Molecule: O=C(O)CN(CCOCCOCCN(CC(=O)O)CC(=O)O)CC(=O)O [EGTA]
- effect of chelating agent on activity [5]: hardly inhibited

Molecule: C[C@H](O)[C@H](O)[C@@H](O)[C@@H](O)C=O [L-rhamnose]
- Enzyme derived from B. Pallidus (relative activity %) [1]: 100%
- Enzyme derived from P stutzeri (relative activity %) [2]: 100%

Molecule: O=C[C@@H](O)[C@@H](O)[C@H](O)CO [D-lyxose]
- Enzyme derived from B. Pallidus (relative activity %) [1]: 0.14%
- Enzyme derived from P stutzeri (relative activity %) [2]: 0.006%

Molecule: O=C(CO)[C@H](O)[C@H](O)[C@H](O)CO [D-psicose]
- solubility in methanol and ethanol ([3]; methanol and ethanol): about 10%
- solubility in water ([3]; water): readily soluble
- activity between D-psicose and D-allose [4]: hardly exhibits an activity

Molecule: [Co+2] [cobalt ion]
- activity inhibited by metal ion [6]: About 30%
- activity inhibited by metal ion ([5]; 1 mM cobalt ion): About 30%

B1: L-rhamnose isomerase derived from Bacillus pallidus: thermotolerant L-rhamnose isomerase derived from Bacillus pallidus strain 14a (FERM AP-20172), amino acid sequence SEQ ID NO: 2 (protein, listed as Bacillus pallidus)
chain: MVIKESFEIARQVYEKWGINIEEVLENLQQASISIHCWQGDDVKGFEADASELSGGIDVTGNYPGKARNAEELRQDLEKALSLIPGKHRVNLHAIYAETNGEKVERDQLEPKHFENWVNWAKKIGIGLDFNPTLFSHEKAADGLTLSHPDPGIREFWINHCIRSRKIGEYFGKELGTPCLTNIWIPDGYKDIPSDRLTPRKRLKESLDKIFSVEINEKYNLDAVESKLFGIGSESFVVGSHEFYLGYALQNNKIYLLDTGHFHPTETVSNKISSILLYSDRLALHVSRPVRWDSDHVVILDDELREIALEIVRNDALHKVLIGLDFFDASINRLAAWVIGTRNMIKALLYAMLMPHEYLKQLQEKGNFTERLAVMEEFKTYPFGAIWDYYCEKMNVPVREEWLKEIQKYEEEVLTKRQ
- pH at which the highest activity was exhibited [7]: 6
- optimal temperature (highest enzymatic activity) [8]: 80 °C
- optimal temperature higher compared with the L-rhamnose isomerase of LL172 [8]: 20 °C
- optimal temperature higher compared with the L-rhamnose isomerase of LL172 ([8]; listed as thermotolerant L-rhamnose isomerase): about 20 °C
- stable temperature higher compared with the L-rhamnose isomerase of LL172 [9]: 10 °C
- temperature stability (stable up to) [9]: up to 50 °C

B2: L-rhamnose isomerase produced by Pseudomonas stutzeri LL172: known L-rhamnose isomerase derived from Pseudomonas stutzeri LL172 (FERM BP-08593), amino acid sequence SEQ ID NO: 4 (protein, listed as Pseudomonas stutzeri)
chain: MAEFRIAQDVVARENDRRASALKEDYEALGANLARRGVDIEAVTAKVEKFFVAVPSWGVGTGGTRFARFPGTGEPRGIFDKLDDCAVIQQLTRATPNVSLHIPWDKADPKELKARGDALGLGFDAMNSNTFSDAPGQAHSYKYGSLSHTDAATRAQAVEHNLECIEIGKAIGSKALTVWIGDGSNFPGQSNFTRAFERYLSAMAEIYKGLPDDWKLFSEHKMYEPAFYSTVVQDWGTNYLIAQTLGPKAQCLVDLGHHAPNTNIEMIVARLIQFGKLGGFHFNDSKYGDDDLDAGAIEPYRLFLVFNELVDAEARGVKGFHPAHMIDQSHNVTDPIESLINSANEIRRAYAQALLVDRAALSGYQEDNDALMATETLKRAYRTDVEPILAEARRRTGGAVDPVATYRASGYRARVAAERPASVAGGGGII
- pH at which the highest activity was exhibited [7]: 9
- optimal temperature (highest enzymatic activity) [8]: 60 °C
- temperature stability (stable up to) [9]: 40 °C
- optimal pH [10]: 9.0
- temperature of highest activity [11]: 60 °C
- remaining activity ([12]; 50° C. for 10 minutes): ≥ 90%
- temperature stability (stable at) ([12]; 10 minutes): 40 °C
